Source: publication PMC10281321, “Discovery of an effective anti-inflammatory agent for inhibiting the activation of NF-κB” (Journal of Enzyme Inhibition and Medicinal Chemistry, 2023)
Entries after “also recorded” stand apart in the source; their conditions may differ.

Experiments:
[1] = Cytotoxicity by MTT assay; assay type: cell-based
[2] = system: NF-κB; assay: NF-κB transcriptional activity dual-luciferase reporter assay, TNF-α stimulated; assay type: cell-based; conditions: HEK293T cells transfected with NF-κB reporter plasmid, stimulated by TNF-α
Protocol: (§1) 4.5. NF-κB transcriptional activity assay
HEK293T cells were seeded into 96 well plate at a density of 1×10^5 cells per well. After incubated for 24 hours, cells were transfected with NF-κB reporter plasmid at 100 ng/well using lip2000.Six hours later, the medium was replaced by fresh medium containing tested compounds with different concentrations. Then incubated for another hour, TNF-α was added for a final concentration at 10 ng/mL.12 hours later, the cell lysate was collected and the RLU was measured by microplate reader. […]

[3] = system: LPS-stimulated RAW264.7 cells; assay: NO release inhibition in LPS-stimulated RAW264.7 cells (Griess reagent); assay type: cell-based; conditions: for IC50: Mus musculus, LPS-stimulated RAW264.7 cells, Griess Reagent; for anti-inflammatory activity (in words): SAR summary covering NO release and NF-κB reporter inhibition
Protocol: After incubated for 24 hours, cells were treated with tested compounds for different
concentrations(3.125,6.25,12.5,25 and 50μM) for 1 h, and then treated with 1 μg/mL LPS
for further 24 h. The supernatants were collected and NO level was measured using
Griess reagent (Beyotime, China). […]

[4] = system: LPS-induced inflammation model of mice; assay: LPS-induced inflammation model in vivo; set-up: species or system C57BL/6 mice
Protocol: All antibodies were purchased from ZENBIO.
4.9 Establishment of LPS-induced inflammation models in vivo
The 30 male C57BL/6 mice weighing 18-22 g were purchased from Animal Department of Anhui Medical University. After adaptive feeding for a week, mice were randomly divided into five groups on average, including the control group, LPS group, compound 51 (5,10,20 mg/kg) +LPS group. Before received 20 mg/kg LPS by intraperitoneal injection, mice were gavaged for three days of compound 51. 6 hours after received LPS, the blood and tissues were taken from mice. The levels of IL-6, TNF-α, SOD and MDA

[5] = system: MAPKs (P38, JNK and ERK); assay: Western blot of LPS-regulated MAPK signalling activation in RAW264.7 cells; assay type: cell-based; conditions: LPS stimulated, WB
Protocol: (§2) RAW264.7 cells were seeded into 6 well plate at a density of 1.5×10^6 per well and incubated at 37 C in 5% CO2 about 24 h. RAW264.7 cells were pretreated with compound (4, 2, 1 μM) for 1 h, then treated with LPS (1 μg/mL) for 30 min. The cells were lysed in 300 μL RIPA cell lysis buffer and the samples were analyzed by WB. […] All antibodies were purchased from ZENBIO. […]

[6] = system: TNF-α and IL-6; assay: TNF-α and IL-6 assay (ELISA) in LPS-stimulated RAW264.7 cells; assay type: cell-based; conditions: 1 μg/mL LPS 24 h, supernatant ELISA
Protocol: 4.6. TNF-α and IL-6 assay
(§3) RAW264.7 cells were seeded into 6 well plate at a density of 1.5×10^6 cells per well. After incubated for 24 hours, cells were treated with different concentrations of compound and stimulated by 1 μg/mL LPS after one hour.24 hours later, the supernatant was collected and measured by ELISA kits(MultiScience). […]

[7] = system: NF-κB p65 and IκBα; assay: Western blot of LPS-induced phosphorylation of p65 and IκBα in RAW264.7 cells; assay type: cell-based; conditions: compound 4, 2, 1 μM 1 h, then LPS 1 μg/mL 30 min, WB
Protocol: as §2

[8] = system: iNOS and COX-2; assay: Western blot of iNOS and COX-2 expression in LPS-stimulated RAW264.7 cells; assay type: cell-based; conditions: compound 1 h then LPS 24 h, WB
Protocol: RAW264.7 cells were seeded into 6 well plate at a density of 1.5×10^6 per well and incubated at 37 C in 5% CO2 about 24 h. RAW264.7 cells were pretreated with […]
were lysed in 300 μL RIPA cell lysis buffer and the samples were analyzed by WB. […] All antibodies were purchased from ZENBIO. […]

[9] = system: RELA (p65) and NFKB1 (p50) subunits of NF-κB; assay: Western blot of TNFα-induced nuclear translocation of p65 and p50 in HEK293T cells; assay type: cell-based; conditions: compound 4, 2, 1 μM 1 h, then TNF-α 12 h, nuclear protein WB
Protocol: HEK293T cells were seeded into 6 well plate at a density of 1.5×10^6 cells per well and incubated at 37°C in 5% CO2 about 24 h. HEK293T cells were pretreated with compound (4, 2, 1 μM) for 1 h, then treated with TNF-α (1 μg/mL) for 12 h. The nuclear protein was extracted by Nuclear protein extraction kit(Beyotime).The samples were analyzed by WB.
All antibodies were purchased from ZENBIO. […]

[10] = system: RAW264.7 cells; assay: Reactive oxygen species (ROS) assay in LPS-stimulated RAW264.7 cells; assay type: cell-based; conditions: 1 μg/mL LPS 24 h, DCFH-DA
Protocol: […]
as §1
HEK293T cells were seeded into 96 well plate at a density of 1×10^5 cells per well. After incubated for 24 hours, cells were transfected with NF-κB reporter plasmid at 100 ng/well using lip2000.Six hours later, the medium was replaced by fresh medium containing tested compounds with different concentrations. Then incubated for another hour, TNF-α was added for a final concentration at 10 ng/mL.12 hours later, the cell lysate was collected and the RLU was measured by microplate reader.
4.6. […]
as §3
stimulated by 1 μg/mL LPS after one hour.24 hours later, cells were collected and washed by PBS for three times. […] Cell samples were incubated for 20 min at 37°C,and then the fluorescence intensity measured by microplate reader using Ex λ 488 nm and Em λ 525 […]

[11] = compound 51 5,10,20 mg/kg gavaged, LPS i.p.
[12] = compound 51 5,10,20 mg/kg gavaged, LPS i.p., ELISA

For `CC(=O)Nc1ccc(NC(=O)c2cc(-c3ccccc3C#N)cnc2N)cc1` [Compound 48], the IC50 [1] was over 50 µM, the IC50 ([2]; Homo sapiens, HEK-293T) was over 2 µM and the IC50 [3] was over 50 µM.

In the case of `CC(=O)Nc1ccc(NC(=O)c2cc(-c3ccc(C=O)c(C)c3)cnc2N)cc1` [Compound 49], the IC50 [1] is reported as over 50 µM, the IC50 ([2]; Homo sapiens, HEK-293T) is reported as over 2 µM and the IC50 [3] is reported as over 50 µM.

Work on `CC(=O)Nc1ccc(NC(=O)c2cc(-c3ccc(F)c(C)c3)cnc2N)cc1` [Compound 50] yielded an IC50 [1] of over 50 µM, an IC50 ([2]; Homo sapiens, HEK-293T) of 0.577 ± 0.0216 µM and an IC50 [3] of 8.6 ± 1.9 µM. For the same compound, the “anti-inflammatory activity (in words)” value [3] was “superior anti-inflammatory activity”.

For `CC(=O)Nc1ccc(NC(=O)c2cc(-c3ccc(N)cc3Cl)cnc2N)cc1` [Compound 51], the “activation of NF-κB in splenic organ” value ([4]; LPS i.p., spleen WB) was “suppressed the activation of NF-κB in splenic organ”, the “injury of spleen (HE staining)” value ([4]; compound 51 5,10,20 mg/kg gavaged three days before LPS i.p.) was “alleviated these injury in a dose-dependent manner” and the “gastric distention and splenomegaly” value ([4]; compound 51 5,10,20 mg/kg gavaged three days before LPS i.p., 6 hours after LPS) was “these symptoms were relieved”. For the same compound, the “MDA activity in blood” value [4, 11] was “reversed their activity; also recorded: decreased MDA activity”, the “SOD activity in blood” value [4, 11] was “reversed their activity; also recorded: increased SOD activity” and the “IL-6 level in blood” value [4, 12] was “decreased obviously”. The “TNF-α level in blood” value [4, 12] was “decreased obviously”, the IC50 [1] was over 50 µM and the “cytotoxicity (in words)” value [1] was “did not show obvious cytotoxicity”. For the same compound, the “phosphorylation of ERK” value [5] was “significantly decreased”, the “phosphorylation of JNK” value [5] was “significantly decreased” and the “phosphorylation of P38” value [5] was “significantly decreased”. The IC50 [2] was 0.172 ± 0.0114 µM, the IC50 ([2]; Homo sapiens, HEK-293T) was 0.173 µM and the IC50 [3] was 3.1 ± 1.1 µM. For the same compound, the “anti-inflammatory activity (in words)” value [3] was “superior anti-inflammatory activity”, the “level of IL-6” value [6] was “decreased the levels of TNF-α and IL-6 significantly in a dose dependent manner” and the “level of TNF-α” value [6] was “decreased the levels of TNF-α and IL-6 significantly in a dose dependent manner”. The “LPS-induced phosphorylation of IκBα” value [7] was “suppressed significantly in a dose dependent manner”, the “LPS-induced phosphorylation of p65” value [7] was “suppressed significantly in a dose dependent manner” and the “expression of COX-2” value [8] was “decreased significantly”. The “expression of iNOS” value [8] was “decreased significantly”, the “TNFα-induced nuclear translocation of p50” value [9] was “inhibited by compound in a dose dependent manner” and the “TNFα-induced nuclear translocation of p65” value [9] was “inhibited by compound in a dose dependent manner”. For the same compound, the “level of ROS” value [10] was “decrease the level of ROS obviously”.

Work on `COc1ccc(-c2cnc(N)c(C(=O)Nc3ccc(NC(C)=O)cc3)c2)c(F)c1` [Compound 52] yielded an IC50 [1] of over 50 µM, an IC50 ([2]; Homo sapiens, HEK-293T) of 1.42 ± 0.0247 µM and an IC50 [3] of over 50 µM.
